The results in this text go back to the supplement of paper PMC10307832.

Holding throughout (assay): relative viability (nuclei count vs DMSO), 5 days (fraction); higher = more cells survive
Compound in the test “Tivantinib + Tozasertib”: O=C1NC(=O)[C@@H](c2cn3c4c(cccc24)CCC3)[C@@H]1c1c[nH]c2ccccc12 [Tivantinib] + Cc1cc(Nc2cc(N3CCN(C)CC3)nc(Sc3ccc(NC(=O)C4CC4)cc3)n2)n[nH]1 [Tozasertib] (partner 0.1 µM)
The method, boiled down: (§1)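 Each reported value is a median over duplicate plates. It expresses relative viability: treated-well nuclei count divided by vehicle-well nuclei count. Lung cancer cell lines in 1536-well plates were dosed by pin tool a day after seeding, alone with one drug or with a fixed anchor-drug dose plus five library-drug doses (not always all listed) in √10 steps, and nuclei were counted after 5 days.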

Compound in the test “Tivantinib + Olaparib”: O=C1NC(=O)[C@@H](c2cn3c4c(cccc24)CCC3)[C@@H]1c1c[nH]c2ccccc12 [Tivantinib] + O=C(c1cc(Cc2n[nH]c(=O)c3ccccc23)ccc1F)N1CCN(C(=O)C2CC2)CC1 [Olaparib] (partner 8 µM)
The essentials:
as §1

Compound in the test “Crenolanib + Pictilisib”: CC1(COc2ccc3c(c2)ncn3-c2ccc3cccc(N4CCC(N)CC4)c3n2)COC1 [Crenolanib] + CS(=O)(=O)N1CCN(Cc2cc3nc(-c4cccc5[nH]ncc45)nc(N4CCOCC4)c3s2)CC1 [Pictilisib] (partner 1 µM)
The essentials: as §1

Compound in the test “Crenolanib + Foretinib”: CC1(COc2ccc3c(c2)ncn3-c2ccc3cccc(N4CCC(N)CC4)c3n2)COC1 [Crenolanib] + COc1cc2c(Oc3ccc(NC(=O)C4(C(=O)Nc5ccc(F)cc5)CC4)cc3F)ccnc2cc1OCCCN1CCOCC1 [Foretinib] (partner 0.25 µM)
The method, boiled down:
as §1

NCI-H1666: the relative viability with Tivantinib + Tozasertib (first compound 0.01 µM) amounted to 0.624; with Tivantinib + Tozasertib (first compound 0.03162 µM), 0.612; with Tivantinib + Tozasertib (first compound 0.1 µM), 0.606; with Tivantinib + Tozasertib (first compound 0.3162 µM), 0.526; with Tivantinib + Olaparib (first compound 0.01 µM), 0.734; in the test with Tivantinib + Olaparib (first compound 0.03162 µM), 0.736. In addition, the relative viability turned out to be 0.696 with Tivantinib + Olaparib (first compound 0.1 µM); 0.731 in the test with Tivantinib + Olaparib (first compound 0.3162 µM); 0.605 with Crenolanib + Pictilisib (first compound 0.01 µM); 0.352 with Crenolanib + Pictilisib (first compound 0.03162 µM); 0.401 with Crenolanib + Pictilisib (first compound 0.1 µM); 0.406 with Crenolanib + Pictilisib (first compound 0.3162 µM). In addition, the relative viability with Crenolanib + Pictilisib (first compound 1 µM) was 0.411; with Crenolanib + Foretinib (first compound 0.01 µM) it was 0.987; with Crenolanib + Foretinib (first compound 0.03162 µM), 0.897; in the test with Crenolanib + Foretinib (first compound 0.1 µM), 0.886; in the test with Crenolanib + Foretinib (first compound 0.3162 µM), 1.02; in the test with Crenolanib + Foretinib (first compound 1 µM), 0.974.
As to NCI-H727, the relative viability worked out at 0.641 with Tivantinib + Tozasertib (first compound 0.01 µM); 0.558 with Tivantinib + Tozasertib (first compound 0.03162 µM); 0.463 in the test with Tivantinib + Tozasertib (first compound 0.1 µM); 0.515 in the test with Tivantinib + Tozasertib (first compound 0.3162 µM); 0.746 with Tivantinib + Olaparib (first compound 0.01 µM); 0.785 in the test with Tivantinib + Olaparib (first compound 0.03162 µM). Moreover, the relative viability with Tivantinib + Olaparib (first compound 0.1 µM) is 0.593; with Crenolanib + Pictilisib (first compound 0.01 µM), 0.491; with Crenolanib + Pictilisib (first compound 0.03162 µM), 0.634; with Crenolanib + Pictilisib (first compound 0.1 µM) it was 0.342; with Crenolanib + Pictilisib (first compound 0.3162 µM), 0.473; with Crenolanib + Pictilisib (first compound 1 µM), 0.418. Besides, the relative viability with Crenolanib + Foretinib (first compound 0.01 µM) came out at 0.915; with Crenolanib + Foretinib (first compound 0.03162 µM), 0.975; with Crenolanib + Foretinib (first compound 0.1 µM), 0.835; in the test with Crenolanib + Foretinib (first compound 0.3162 µM) it was 0.893; in the test with Crenolanib + Foretinib (first compound 1 µM) it was 0.809.
Turning to HCC-15, the relative viability in the test with Tivantinib + Tozasertib (first compound 0.01 µM) was determined as 0.463; with Tivantinib + Tozasertib (first compound 0.03162 µM) it was 0.442; with Tivantinib + Tozasertib (first compound 0.1 µM) it was 0.409; with Tivantinib + Tozasertib (first compound 0.3162 µM), 0.335; with Tivantinib + Olaparib (first compound 0.01 µM), 0.725; with Tivantinib + Olaparib (first compound 0.03162 µM) it was 0.756. For the same cell line, the relative viability is 0.643 with Tivantinib + Olaparib (first compound 0.1 µM); 0.917 with Tivantinib + Olaparib (first compound 0.3162 µM); 0.695 with Crenolanib + Pictilisib (first compound 0.01 µM); 0.731 with Crenolanib + Pictilisib (first compound 0.03162 µM); 0.696 with Crenolanib + Pictilisib (first compound 0.1 µM); 0.644 with Crenolanib + Pictilisib (first compound 0.3162 µM). The relative viability stood at 0.671 with Crenolanib + Pictilisib (first compound 1 µM); 1.08 with Crenolanib + Foretinib (first compound 0.01 µM); 1.07 with Crenolanib + Foretinib (first compound 0.03162 µM); 0.989 with Crenolanib + Foretinib (first compound 0.1 µM); 1.01 with Crenolanib + Foretinib (first compound 0.3162 µM); 0.853 in the test with Crenolanib + Foretinib (first compound 1 µM).
For NCI-H647, the relative viability in the test with Tivantinib + Tozasertib (first compound 0.01 µM) came to 0.38; with Tivantinib + Tozasertib (first compound 0.03162 µM), 0.265; with Tivantinib + Tozasertib (first compound 0.1 µM) it was 0.306; with Tivantinib + Tozasertib (first compound 0.3162 µM) it was 0.137; with Tivantinib + Olaparib (first compound 0.01 µM), 0.425; with Tivantinib + Olaparib (first compound 0.03162 µM) it was 0.638. Also, the relative viability with Tivantinib + Olaparib (first compound 0.1 µM) came out at 0.401; with Tivantinib + Olaparib (first compound 0.3162 µM), 0.638; with Crenolanib + Pictilisib (first compound 0.01 µM) it was 0.448; with Crenolanib + Pictilisib (first compound 0.03162 µM), 0.314; with Crenolanib + Pictilisib (first compound 0.1 µM), 0.412; with Crenolanib + Pictilisib (first compound 0.3162 µM) it was 0.423. For the same cell line, the relative viability is 0.454 with Crenolanib + Pictilisib (first compound 1 µM); 1.25 with Crenolanib + Foretinib (first compound 0.01 µM); 1.09 in the test with Crenolanib + Foretinib (first compound 0.03162 µM); 1.11 in the test with Crenolanib + Foretinib (first compound 0.1 µM); 1.23 in the test with Crenolanib + Foretinib (first compound 0.3162 µM); 1.28 in the test with Crenolanib + Foretinib (first compound 1 µM).
On to NCI-H1650, for which the relative viability came out at 0.411 with Tivantinib + Tozasertib (first compound 0.01 µM); 0.467 with Tivantinib + Tozasertib (first compound 0.03162 µM); 0.357 in the test with Tivantinib + Tozasertib (first compound 0.1 µM); 0.434 in the test with Tivantinib + Tozasertib (first compound 0.3162 µM); 0.832 with Tivantinib + Olaparib (first compound 0.01 µM); 0.817 with Tivantinib + Olaparib (first compound 0.03162 µM). Moreover, the relative viability was determined as 0.678 in the test with Tivantinib + Olaparib (first compound 0.1 µM); 0.624 in the test with Tivantinib + Olaparib (first compound 0.3162 µM); 0.731 with Crenolanib + Pictilisib (first compound 0.01 µM); 0.68 with Crenolanib + Pictilisib (first compound 0.03162 µM); 0.583 with Crenolanib + Pictilisib (first compound 0.1 µM); 0.472 with Crenolanib + Pictilisib (first compound 0.3162 µM). The relative viability in the test with Crenolanib + Pictilisib (first compound 1 µM) turned out to be 0.327; with Crenolanib + Foretinib (first compound 0.01 µM), 1.34; with Crenolanib + Foretinib (first compound 0.03162 µM), 1.27; with Crenolanib + Foretinib (first compound 0.1 µM), 1.2; with Crenolanib + Foretinib (first compound 0.3162 µM), 1.23; with Crenolanib + Foretinib (first compound 1 µM) it was 0.945.
For the cell line NCI-H2347, the relative viability with Tivantinib + Tozasertib (first compound 0.01 µM) was 0.71; with Tivantinib + Tozasertib (first compound 0.03162 µM), 0.6; with Tivantinib + Tozasertib (first compound 0.1 µM), 0.53; with Tivantinib + Tozasertib (first compound 0.3162 µM) it was 0.624; in the test with Tivantinib + Olaparib (first compound 0.01 µM), 0.556; with Tivantinib + Olaparib (first compound 0.03162 µM), 0.593. For the same cell line, the relative viability with Tivantinib + Olaparib (first compound 0.1 µM) is 0.583; with Tivantinib + Olaparib (first compound 0.3162 µM), 0.552; in the test with Crenolanib + Pictilisib (first compound 0.01 µM) it was 0.55; with Crenolanib + Pictilisib (first compound 0.03162 µM), 0.625; in the test with Crenolanib + Pictilisib (first compound 0.1 µM), 0.464; with Crenolanib + Pictilisib (first compound 0.3162 µM), 0.845. The relative viability came to 0.561 with Crenolanib + Pictilisib (first compound 1 µM); 0.879 with Crenolanib + Foretinib (first compound 0.01 µM); 0.757 in the test with Crenolanib + Foretinib (first compound 0.03162 µM); 1.02 with Crenolanib + Foretinib (first compound 0.3162 µM); 0.901 with Crenolanib + Foretinib (first compound 1 µM).
As to LOU-NH91, the relative viability with Tivantinib + Tozasertib (first compound 0.01 µM) was 0.663; with Tivantinib + Tozasertib (first compound 0.03162 µM), 0.675; with Tivantinib + Tozasertib (first compound 0.1 µM), 0.593; with Tivantinib + Tozasertib (first compound 0.3162 µM), 0.537; with Tivantinib + Olaparib (first compound 0.01 µM), 0.861; in the test with Tivantinib + Olaparib (first compound 0.03162 µM) it was 0.888. Besides, the relative viability worked out at 0.9 in the test with Tivantinib + Olaparib (first compound 0.1 µM); 0.715 with Tivantinib + Olaparib (first compound 0.3162 µM); 0.595 in the test with Crenolanib + Pictilisib (first compound 0.01 µM); 0.525 with Crenolanib + Pictilisib (first compound 0.03162 µM); 0.473 with Crenolanib + Pictilisib (first compound 0.1 µM); 0.56 with Crenolanib + Pictilisib (first compound 0.3162 µM). The relative viability was 0.53 in the test with Crenolanib + Pictilisib (first compound 1 µM); 0.969 with Crenolanib + Foretinib (first compound 0.01 µM); 0.914 with Crenolanib + Foretinib (first compound 0.03162 µM); 0.893 in the test with Crenolanib + Foretinib (first compound 0.1 µM); 0.888 with Crenolanib + Foretinib (first compound 0.3162 µM); 0.892 with Crenolanib + Foretinib (first compound 1 µM).
As to H3255, the relative viability stood at 0.62 with Tivantinib + Tozasertib (first compound 0.01 µM); 0.594 with Tivantinib + Tozasertib (first compound 0.03162 µM); 0.535 in the test with Tivantinib + Tozasertib (first compound 0.1 µM); 0.599 with Tivantinib + Olaparib (first compound 0.01 µM); 0.588 with Tivantinib + Olaparib (first compound 0.03162 µM); 0.57 in the test with Tivantinib + Olaparib (first compound 0.1 µM). Besides, the relative viability in the test with Crenolanib + Pictilisib (first compound 0.01 µM) worked out at 0.461; with Crenolanib + Pictilisib (first compound 0.03162 µM), 0.475; with Crenolanib + Pictilisib (first compound 0.1 µM), 0.479; with Crenolanib + Pictilisib (first compound 0.3162 µM), 0.559; in the test with Crenolanib + Pictilisib (first compound 1 µM) it was 0.496; in the test with Crenolanib + Foretinib (first compound 0.01 µM), 0.935. Besides, the relative viability stood at 0.851 with Crenolanib + Foretinib (first compound 0.03162 µM), 0.84 in the test with Crenolanib + Foretinib (first compound 0.1 µM), 0.877 with Crenolanib + Foretinib (first compound 0.3162 µM) and 1.06 with Crenolanib + Foretinib (first compound 1 µM).
